Reference: ChEMBL document CHEMBL4689842, “EUbOPEN Chemogenomics Library wave 1” (2021)

What was measured:
Type in all cases: toxicity, cell-based
[1] = test system: Fibroblast; assay: Incucyte cell viability with human fibroblast; conditions: 10 µM, compound concentration 10 uM
[2] = test system: U2OS; assay: Incucyte cell viability with U2OS; conditions: human, 10 µM, compound concentration 10 uM
[3] = test system: HEK-293T; assay: Incucyte cell viability with HEK293T; conditions: human, 10 µM, compound concentration 10 uM
[4] = 0 h, replicate number 1, timepoint 0 hours
[5] = 6 h, replicate number 1, timepoint 6 hours
[6] = 12 h, replicate number 1, timepoint 12 hours
[7] = 18 h, replicate number 1, timepoint 18 hours
[8] = 24 h, replicate number 1, timepoint 24 hours
[9] = 0 h, replicate number 2, timepoint 0 hours
[10] = 6 h, replicate number 2, timepoint 6 hours
[11] = 12 h, replicate number 2, timepoint 12 hours
[12] = 24 h, replicate number 2, timepoint 24 hours
[13] = 18 h, replicate number 2, timepoint 18 hours
Further: filed as whole numbers so only -1 and 0 and 1 occur.

SMILES	Growth Rate [1, 4]	Growth Rate [1, 5]	Growth Rate [1, 6]	Growth Rate [1, 7]	Growth Rate [1, 8]	Growth Rate [2, 4]	Growth Rate [2, 9]	Growth Rate [2, 10]	Growth Rate [2, 7]	Growth Rate [2, 8]	Growth Rate [3, 4]	Growth Rate [3, 5]	Growth Rate [3, 10]	Growth Rate [3, 6]	Growth Rate [3, 7]	Growth Rate [3, 8]	Growth Rate [2, 5]	Growth Rate [2, 6]	Growth Rate [1, 12]	Growth Rate [3, 9]	further results
CC(=O)OCC(=O)[C@@]1(O)CC[C@H]2[C@@H]3CCC4=CC(=O)CC[C@]4(C)[C@@]3(F)[C@@H](O)C[C@@]21C [FLUDROCORTISONE ACETATE]	0	0	1	1	1	0	1	0	1	1	0	1	0	1	1	1					Growth Rate [2, 11]: 1; Growth Rate [3, 12]: 0
Cc1c(C(=O)NC2CCCCC2)sc2nc3ccc(N)cc3n12.Cl	0	0	1		1	0		0	1	1	0	0		0	0	0	1	1			Growth Rate [1, 13]: 1
O=C(Nc1cnc(Oc2ccc(F)cc2)nc1)N1CCc2ncccc2[C@@H]1c1ccc(F)cc1 [BAY-899]	0	1	1	1	1	0			1	0	0	0	1	0	0	0		1			Growth Rate [2, 12]: 1
CN(c1ccnc(CNc2nc(Nc3ccc4c(c3)CC(=O)N4)ncc2C(F)(F)F)n1)S(C)(=O)=O [PF-00911705]	0		1	0	1		0		0	0		0		0	0	0	0	0	0		Growth Rate [1, 10]: 0; Growth Rate [1, 11]: 0
CN(C)S(=O)(=O)c1ccc(NC(=S)N2CCC(C(O)(c3ccccc3)c3ccccc3)CC2)cc1	0	0	0	0	0		0		1	0		0		0	0	0	1	0	1	0	Growth Rate [1, 13]: 1; Growth Rate [2, 12]: 1
CNCCC(Oc1ccc(C(F)(F)F)cc1)c1ccccc1.Cl (configuration not stated) [FLUOXETINE HYDROCHLORIDE]	0	1	0	1	1			1	1	1		0	1	0	0	0			0	0	Growth Rate [1, 10]: 0; Growth Rate [1, 13]: 0; Growth Rate [2, 11]: 1; Growth Rate [3, 11]: 1
Cc1c(OCc2cccc(-c3ccc(C(=O)O)cc3)c2)cc2c(c1C)C(=O)C(C1CCCC1)C2 (configuration not stated)	0	0	0	0	0	0			1	1	0	0		0	0	0		1			Growth Rate [3, 12]: 1
CN1C(=O)[C@@H](N2CCc3cn(Cc4ccccc4)nc3C2=O)COc2ccccc21 [TP-030-1]		0	0	0	0		0		1	1	0						1	1		1	Growth Rate [1, 9]: 1; Growth Rate [3, 12]: 1
CSc1ccc(C(=O)N[C@@H]2CCCC[C@@H]2NC(=O)CNC(=O)c2cc(C(F)(F)F)ccc2NC(=O)NC(C)C)cc1	0	1	1	1	0	0		0	0	0	1	0	1	0	0	0		1	1	0	Growth Rate [2, 11]: 0; Growth Rate [2, 13]: 1; Growth Rate [2, 12]: 1
